Here are results for 24 compounds from ChEMBL document CHEMBL5108066, “Structure-Guided Discovery of Potent Antifungals that Prevent Ras Signaling by Inhibiting Protein Farnesyltransferase” (J Med Chem, 2022).

One may read the IC50 as the concentration that gives 50% inhibition.

Values after ≈ are worked out from the molar mass of the structure shown. Active and inactive are the calls of the source. The calls are words filed in the database; no cut-off is given here.

Data set [1] relates to Cryptococcus neoformans. As to the kind of experiment: Antifungal activity against Cryptococcus neoformans H99 assessed as decrease in cell viability by measuring metabolic activity incubated for 72 hrs by alamar blue staining based broth dilution method. It is filed as functional. In general terms: Alamar Blue is a resazurin reagent that responds to reducing activity.
Data set [2] is described as follows: Inhibition of Cryptococcus neoformans farnesyltransferase assessed as inhibition of farnesylation of dansyl-GCVVM peptide using fluorescent peptide dansyl-GCVVM and 1uM farnesyl diphosphate as substrate by fluorescence assay.
For data set [3], the system named is Cryptococcus neoformans. Briefly: Uncompetitive type inhibition of Cryptococcus neoformans farnesyltransferase assessed as inhibition constant using FPP in presence of 10 mM phosphate and fluorescent peptide dansyl-GCVVM as substrate by steady-state kinetic analysis.
The test system of data set [4] is Cryptococcus neoformans. Briefly: Uncompetitive type inhibition of Cryptococcus neoformans farnesyltransferase assessed as inhibition constant using farnesyl diphosphate and fluorescent peptide dansyl-GCVVM as substrate by steady-state kinetic analysis.
The nature of data set [5]: Inhibition of rat farnesyltransferase assessed as inhibition of farnesylation of dansyl-GCVVM peptide using fluorescent peptide dansyl-GCVVM and 1uM farnesyl diphosphate as substrate by fluorescence assay.
For data set [6], the system named is Schizosaccharomyces pombe. Briefly: Antifungal activity against Schizosaccharomyces pombe efflux-defective strain MJ-1682 assessed as inhibition of fungal growth by broth microdilution method. The format is functional. On the technique in general: In broth dilution the organism is exposed to a series of concentrations in liquid medium.
Data set [7] is described as follows: Cytotoxicity against mouse J774.A1 cells assessed as inhibition of cell viability measured at 24 hrs by AlamarBlue staining based cell viability assay. The format is toxicity. The conditions noted are these: read-out: MIC.
Data set [8] deals with Cryptococcus neoformans. Briefly: Fungicidal activity against Cryptococcus neoformans H99 assessed as reduction in colonies incubated for 48 hrs by disk diffusion method. The format is functional, organism-based. (A growth-free zone around the sample is the usual read-out of agar diffusion tests.)
Data set [9] has as its system Cryptococcus neoformans. Briefly: Inhibition of biofilm formation in Cryptococcus neoformans H99 incubated for 3 days by alamar blue staining based microtiter plate reader assay. The note with it: H99, 72 h, time 3 day. It is filed as functional.

For `CCCC[C@H]1CN(c2cccc(Cl)c2)C(=O)CN1Cc1cncn1Cc1ccc(C#N)cc1`, in data set [1], the MIC turned out to be 50 µM (≈ 23.1 µg/mL). Further, in data set [2], the IC50 was 100 nM.

Regarding `CCCC[C@H]1CN(c2cccc(OC(F)(F)F)c2)C(=O)CN1Cc1cncn1Cc1ccc(C#N)c(F)c1`, the K in data set [3] was determined as 4.2 nM; in data set [4] it was 4.9 nM. The MIC in [1] was 50 µM (≈ 26.5 µg/mL). The IC50 in data set [2] turned out to be 40 nM.

Regarding `CCCC[C@H]1CN(c2cccc(OC(F)(F)F)c2)C(=O)CN1Cc1cncn1Cc1cccc(C#N)c1`, the MIC in data set [1] was 50 µM (≈ 25.6 µg/mL). Besides, the IC50 in data set [2] was 740 nM.

Take `N#Cc1ccc(Cn2cncc2CN2CCN(c3cccc(OC(F)(F)F)c3)C(=O)C2)cc1`: in data set [1], the MIC worked out at 50 µM (≈ 22.8 µg/mL). Besides, the 50% inhibitory concentration (IC50) in data set [2] was determined as 2700 nM.

Take `CCCC[C@H]1CN(c2cccc(OC(F)(F)F)c2)C(=O)CN1Cc1cncn1Cc1ccc(C(F)(F)F)cc1`: in data set [1], the MIC is 6 µM (≈ 3.33 µg/mL). Besides, the IC50 in data set [2] stood at 280 nM.

With `CCCC[C@H]1CN(c2ccccc2)C(=O)CN1Cc1cncn1Cc1ccc(Br)cc1`, the MIC in data set [1] was determined as 50 µM (≈ 24.1 µg/mL). In addition, in data set [2], the IC50 worked out at 920 nM.

For `N#Cc1cc(Cn2cncc2CN2CCN(c3cccc(OC(F)(F)F)c3)C(=O)C2)ccc1Oc1ccccc1`, in data set [1], the MIC turned out to be 50 µM (≈ 27.4 µg/mL). For the same compound, the IC50 in data set [2] is 320 nM.

For the compound `CCC[C@H]1CN(c2cccc(OC(F)(F)F)c2)C(=O)CN1Cc1cncn1Cc1ccc(Br)cc1`, the MIC in data set [1] stood at 6 µM (≈ 3.31 µg/mL). Moreover, in data set [2], the IC50 worked out at 1100 nM.

Take `CCCCC[C@H]1CN(c2cccc(OC(F)(F)F)c2)C(=O)CN1Cc1cncn1Cc1ccc(Br)cc1`: the MIC in [1] was 3 µM (≈ 1.74 µg/mL). Moreover, the IC50 in data set [2] was found to be 160 nM.

As for `CCCC[C@H]1CN(c2cccc(Cl)c2)C(=O)CN1Cc1cncn1Cc1ccc(Cl)cc1`, the MIC in data set [1] was 25 µM (≈ 11.8 µg/mL). Further, the IC50 in [2] was found to be 1600 nM.

Take `N#Cc1ccc(Cn2cncc2CN2CCN(c3cccc(OC(F)(F)F)c3)C(=O)C2)cc1F`: the MIC in [1] stood at 50 µM (≈ 23.7 µg/mL). Besides, in data set [2], the IC50 turned out to be 120 nM.

`CCCC[C@H]1CN(c2cccc(OC(F)(F)F)c2)C(=O)CN1Cc1cncn1Cc1ccc(C#N)cc1`: in data set [1], the MIC stood at 12 µM (≈ 6.14 µg/mL). In addition, the IC50 in data set [2] was found to be 340 nM.

Regarding `CCCC[C@H]1CN(c2cccc(OC(F)(F)F)c2)C(=O)CN1Cc1cncn1Cc1ccc(C#N)c(Oc2ccccc2)c1`, the MIC in data set [1] was 50 µM (≈ 30.2 µg/mL). The IC50 in data set [2] was 150 nM.

As for `CCCC[C@H]1CN(c2cccc(Cl)c2)C(=O)CN1Cc1cncn1Cc1ccc(Br)cc1`, the MIC in data set [1] was found to be 12 µM (≈ 6.19 µg/mL). The IC50 in data set [2] worked out at 1100 nM.

Turning to `CCCC[C@H]1CN(c2cccc(OC(F)(F)F)c2)C(=O)CN1Cc1cncn1Cc1ccc(F)cc1`, in [1], the MIC was found to be 12 µM (≈ 6.05 µg/mL). For the same compound, in [2], the IC50 worked out at 710 nM.

`CCCC[C@H]1CN(c2cccc(OC(F)(F)F)c2)C(=O)CN1Cc1cncn1Cc1ccc(Oc2ccccc2)c(C#N)c1`: the MIC in data set [1] was 50 µM (≈ 30.2 µg/mL). Further, the IC50 in data set [2] came out at 210 nM.

On to `CCCC[C@H]1CN(c2cccc(OC(F)(F)F)c2)C(=O)CN1Cc1cncn1Cc1ccc(Cl)cc1`, for which the MIC in data set [1] worked out at 6 µM (≈ 3.13 µg/mL). Also, in data set [2], the IC50 was 260 nM.

With `N#Cc1ccc(Cn2cncc2CN2CCN(c3cccc(Cl)c3)C(=O)C2)cc1` [L-778123 FREE BASE], the 50% inhibitory concentration (IC50) in data set [5] was 60 nM. Besides, the MIC in data set [1] was determined as 100 µM (≈ 40.6 µg/mL).

Take `N#Cc1cc(Cn2cncc2CN2CCN(c3cccc(OC(F)(F)F)c3)C(=O)C2)ccc1F`: in data set [1], the MIC worked out at 50 µM (≈ 23.7 µg/mL). Besides, the IC50 in [2] came to 550 nM.

Regarding `CCCC[C@H]1CN(c2cccc(C)c2C)C(=O)CN1Cc1cncn1Cc1ccc(C#N)cc1`, the MIC in data set [1] was 50 µM (≈ 22.8 µg/mL). Also, the IC50 in data set [2] amounted to 2200 nM.

Turning to `N#Cc1ccc(Cn2cncc2CN2CCN(c3cccc(OC(F)(F)F)c3)C(=O)C2)cc1Oc1ccccc1`, the MIC in [1] was found to be 50 µM (≈ 27.4 µg/mL). For the same compound, in [2], the IC50 turned out to be 2600 nM.

Consider `CCCC[C@H]1CN(c2cccc(OC(F)(F)F)c2)C(=O)CN1Cc1cncn1Cc1ccccc1`, for which the MIC in data set [1] turned out to be 25 µM (≈ 12.2 µg/mL). Further, in data set [2], the IC50 came out at 1900 nM.

Take `CCCC[C@H]1CN(c2cccc(OC(F)(F)F)c2)C(=O)CN1Cc1cncn1Cc1ccc(Br)cc1`: the MIC in data set [6] was 1.5 µM (≈ 0.848 µg/mL); in [1] it was 3 µM (≈ 1.7 µg/mL); in data set [9], 12.5 µM (≈ 7.07 µg/mL). In addition, the K is 500 nM in [3] and 750 nM in data set [4]. The MCC at 24 h in data set [7] turned out to be 300 µM. For the same compound, the IC50 was 2 nM in data set [5] and 190 nM in data set [2]. For the same compound, the outcome in data set [8] was Active.

In the case of `CCCC[C@H]1CN(c2cccc(OC(F)(F)F)c2)C(=O)CN1Cc1cncn1Cc1ccc(F)c(C#N)c1`, the MIC in [1] amounted to 50 µM (≈ 26.5 µg/mL). In addition, in data set [2], the IC50 was 180 nM.
